Measurements reported in US10688119B2, “Inhibitors of PCSK9 for treatment of lipoprotein metabolism disorders” (Aarhus Universitet, priority 2015, dated 2020).
“Also recorded” adds a separate entry of the source.

B1: mAb 5E11: rat monoclonal antibody against the HSPG binding domain; VH SEQ ID NO: 7, VK SEQ ID NO: 5 (antibody, V domains shown)
VH: EVQLQESGPGLVKPSQSLSLTCSVTGYTITSGYDWSWIRRFPGNTMEWMGDISYSGSTNYNPSLKSRVSITRDTSKNQFFLQLNSVTTGDTATYYCAKLPGWGQGTLVTVSS
VL: DVVLTQTPVFLSVTLGDQTSISCRSSQSLEYSDGYTYLEWYLQKPGQSPQLLIYEVSNRFSGVPDRFIGSGSGTDFTLKISRVEPEDLGVYYCFQGTHDPLTFGSGTKLEIK

What was measured:
[1] = system: LDLR in HepG2 cells; experiment: LDLR levels in HepG2 cells by Western blot/densitometry (PCSK9 induced LDLR degradation)
Procedure: Purified PCSK9 variants were tested in a cell assay to test their ability to induce degradation of LDLR compared to wild-type PCSK9. Induction of LDLR degradation was analyzed by incubation of HepG2 cells with wild type PCSK9 (WT) or the above PCSK9 mutants and LDLR levels were assessed by Western blotting. HepG2 cells were seeded at a density 250.000 cells per well in 12-well plates. […] Cells were harvested and lysed following 18 hours incubation and LDLR levels were assessed by Western blotting and quantification by densitometry.
The PCSK9 inhibitory effect of overnight incubation with suramin (0-200 μg/ml) was tested in HepG2 cells (FIG. 9 A-B).

[2] = target: PCSK9 (Homo sapiens, UniProt Q8NBP7); experiment: Microscale Thermophoresis (MST) equilibrium binding to PCSK9; details: 100 nM labelled PCSK9, PBS+0.05% Tween-20; read-out: KD (affinity for PCSK9, MST)
Chain of PCSK9 (Q8NBP7 153-692): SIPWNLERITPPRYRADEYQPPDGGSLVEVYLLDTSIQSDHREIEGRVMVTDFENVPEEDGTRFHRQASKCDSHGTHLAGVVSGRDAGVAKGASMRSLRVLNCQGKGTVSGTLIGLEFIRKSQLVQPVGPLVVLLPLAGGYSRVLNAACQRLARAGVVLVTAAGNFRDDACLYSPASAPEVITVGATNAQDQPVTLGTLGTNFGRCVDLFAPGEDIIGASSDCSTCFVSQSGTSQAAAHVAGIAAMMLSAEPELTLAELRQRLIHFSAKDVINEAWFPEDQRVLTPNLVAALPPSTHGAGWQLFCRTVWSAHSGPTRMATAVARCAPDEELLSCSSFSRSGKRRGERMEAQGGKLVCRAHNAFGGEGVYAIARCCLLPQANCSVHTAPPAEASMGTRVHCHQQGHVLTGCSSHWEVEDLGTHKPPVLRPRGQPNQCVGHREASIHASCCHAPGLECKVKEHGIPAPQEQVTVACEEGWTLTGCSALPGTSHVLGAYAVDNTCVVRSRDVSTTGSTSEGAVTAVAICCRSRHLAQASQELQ
Procedure: PCSK9 was labeled using the MO-L003 Monolith Blue-NHS labeling kit (NanoTemper Technologies) and a labeling efficiency of 1:1 molar ratio of protein to dye was achieved. PCSK9 was applied at a final concentration of 100 nM. […] MST measurements were performed in standard-treated capillaries (NanoTemper Technologies) on a Monolith NT.115 instrument (NanoTemper Technologies) using 20% LED and 80% MST power. Laser on and off times were 5 s and 35 s, respectively. Negative controls were performed using 100 nM of labelled PCSK9 in MST buffer in all 16 capillaries under the same conditions as mentioned above. […] For each binding partner, the sigmoidal dose-response curves were fitted with GraphPad Prism 6 to yield an average KD value.

[3] = in vivo; cited from earlier work
[4] = patients with elevated serum cholesterol, oral or subcutaneous Pentosan-polysulfate
Procedure: The patient receives subcutaneous injections of 25-500 mg of the composition at intervals of 1-28 days.
A patient with elevated LDL cholesterol is prescribed a statin treatment. […] The patient is then prescribed a treatment with subcutaneous injections of 25-500 mg of a composition comprising a humanized antibody directed against the HSPG binding site in human PCSK9. The injections take place at intervals of 1-28 days.
A patient with elevated LDL cholesterol levels is prescribed administration of a small molecule compound that is designed to block the HSPG binding site in human PCSK9. The compound is administered orally at a dosis of 0.1-30 mg/kg.
In addition to the statin, the patient is administered a compound inhibiting binding of HSPGs to PCSK9. The administration occurs weekly and with a low dose (25-150 mg) of the compound in combination with statins.
Cholesterol levels are then measured.

[5] = system: R93R96R97R104R105H139 PCSK9 mutant and variants; experiment: immunoprecipitation of 35S-mutant PCSK9 and PCSK9 variants; format: binding, human; details: WT, R96R97, R104R105, R93R96R97H139, R93R96R97R104R105H139
Procedure: (§1) Western blot of GAPDH is shown as loading control. (B) Western Blot showing LDLR levels in liver of mice 1 hour afterintravenous administration of 10 μg PCSK9 alone or in combination with 50 U Heparin. 50 μg membrane preparations were loaded. As control is shown Western Blot for sortilin, a PCSK9 receptor previously shown not to be target of PCSK9 induced degradation. (C) Quantification of B) Bands were quantified by densitometry and dot plot show the individual level of each sample in percent of vehicle (0.9% NaCl) injected controls with mean values and SEM. […] (D) Autoradiography (16 h exposure) showing immunoprecipitation of native human ^35S labeled PCSK9 by serum (1 μl) from three rats immunized with DNA encoding rat PCSK9 with human HSPG binding domain. As negative controls were used preimmune serum from the animals. (E) Western Blot showing LDLR in HepG2 cells after overnight incubation with preimmune or immune IgG (1 μg/ml). […] (F) Autoradiography (16 h exposure) showing immunoprecipitation of human ^35S-PCSK9 by 24 individual mAbs (500 μl conditioned hybridoma media) selected in ELISA screening performed by Aldevron. […] (G) Bar graphs showing LDLR levels (average of 2-4 experiments with SEM) in HepG2 cells incubated with mAbs (1:10 dilution of conditioned hybridoma media) as analysed by Western Blot. Twelve individual mAb clones give an approximately two-fold increase LDLR. (H) Autoradiography (16 h exposure) showing immunoprecipitation of human ^35S-mutant PCSK9 (with R93R96R97R104R105H139 mutated to alanine residues) by 12 individual mAbs (500 μl conditioned hybridoma media) all showing PCSK9 inhibitory effect. As control was used a polyclonal antibody (pAb, AF3888 from R&D systems). […] As control was used R&D Systems AF3888 (pAb).
(§2) These 12 clones were tested to see whether they can bind an R93R96R97R104R105H139 PCSK9 mutant (FIG. 8H).

[6] = target: T1, R93R96R97R104R105H139 PCSK9 mutant and variants (Homo sapiens, UniProt Q8NBP7, H139A/R104A/R105A/R93A/R96A/R97A); experiment: as above; format: binding; details: 500 μl conditioned hybridoma media
T1 construct: expressed in transfected cells
Procedure: as §1, §2

| Molecule | plateau of cellular LDLR compared to vehicle control ([1]; dose-dependent, HepG2 cells) | Kd [2] [µM] | median time of absorption from the digestive tract after an oral dose [3] [h] | serum cholesterol levels [4] | increase of cellular LDLR ([1]; mAbs, 1:10 dilution of conditioned hybridoma media) | immunoprecipitation of 35S-PCSK9 WT and variants (epitope) [5] | binding of R93R96R97R104R105H139 PCSK9 mutant (immunoprecipitation) [6] |
| --- | --- | --- | --- | --- | --- | --- | --- |
| pentosan [pentosan sulfate] | around 400% | 381 | 2 | decreased serum cholesterol levels |  |  |  |
| B1 |  |  |  |  | approximately two fold | recognize only WT PCSK9; also recorded: recognize epitopes within the HSPG binding domain | not able to bind this mutant |
